# Experimental data taken from patent US20100120690A1, “Polypeptides Having Antimicrobial Activity and Polynucleotides Encoding Same” (Novozymes Adenium Biotech A/S, priority 2005, published 2010).
# Tested on: Staphylococcus aureus, ATCC 25923
# Test: MIC, NCCLS/CLSI guidelines (Example 5), strain B
# Assay type: cell-based
# Conditions: relative to wildtype Plectasin; average of two independent experiments
# Procedure: (§1) Plectasin wild-type (SEQ ID NO: 1) and several variants of Plectasin were expressed and purified. The Minimal Inhibitory Concentration (MIC) was determined to test for their antimicrobial activity following the NCCLS guidelines from CLSI (Clinical and Laboratory Standards Institute; formerly known as National Committee for Clinical and Laboratory Standards).
# (§2) The peptides were tested against the following strains: • A: Staphylococcus aureus, ATCC 29213; • B: Staphylococcus aureus, ATCC 25923; • C: Staphylococcus aureus, ATCC 29737; • D: Staphylococcus aureus, MRSA ST5 (2001), multi-resistant clinical human isolate from Statens Serum Institut, Denmark; • E: Staphylococcus aureus, MRSA ST80 (2003), multi-resistant clinical human isolate from Statens Serum Institut, Denmark.
# (§3) All MIC values represent an average of two independent experiments; and all results in Table 5 are expressed relative to wildtype Plectasin:
# (§4) 0: >100% of Plectasin wildtype MIC; 1: 80-100% of Plectasin wildtype MIC; 2: 50-80% of Plectasin wildtype MIC; 3: <50% of Plectasin wildtype MIC.
row,Sequence,"Relative MIC, strain B"
1,GFGCKGPWDEDDMQCHNHCKSIKGYRGGYCAKGGFVCKCY [N5K + K26R],2 (50-80% of Plectasin wildtype MIC)
2,GFGCNGPWDEDDMRCHNHCKSIKGYRGGYCAKGGFVCRCY [Q14R + K26R + K38R],3 (<50% of Plectasin wildtype MIC)
3,GFGCNGPWDEDDMRCHNHCKSIRGYRGGYCAKGGFVCKCY [Q14R + K23R + K26R],3 (<50% of Plectasin wildtype MIC)
4,GFGCNGPWDEDDMRCHNHCRSIKGYKGGYCAKGGFVCKCY [Q14R + K20R],3 (<50% of Plectasin wildtype MIC)
5,GFGCNGPWDEGDMQCHNHCKSIKGYKGGYCARGGFVCKCY [D11G + K32R],3 (<50% of Plectasin wildtype MIC)

# Tested on: Staphylococcus carnosus ATCC51365
# Test: Yeast screening assay: radial diffusion assay of yeast supernatants
# Assay type: cell-based
# Parameters: key: An activity of 3 is better than Plectasin; An activity of 2 corresponds to the activity of Plectasin; 1 is worse than Plectasin
# Conditions: yeast supernatant, clearing zone in radial diffusion assay
# In short: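 Supernatants from S. cerevisiae expressing plectasin variants, grown 3 days at 30 °C in galactose medium, were applied to agarose containing 5×10^5 cfu/mL S. carnosus. Plates were incubated 3 h at 37 °C, overlaid, left overnight and MTT-stained. Clearing zones were scored as 2 = plectasin-like, 3 = better, 1 = worse.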
row,Sequence,Activity (antimicrobial activity relative to the activity of plectasin)
1,GFGCKGPWDEDDMQCHNHCKSIKGYRGGYCAKGGFVCKCY [N5K + K26R],3
2,GFGCNGPWDEDDMRCHNHCKSIKGYRGGYCAKGGFVCRCY [Q14R + K26R + K38R],3
3,GFGCNGPWDEDDMRCHNHCKSIRGYRGGYCAKGGFVCKCY [Q14R + K23R + K26R],2
4,GFGCNGPWDEDDMRCHNHCRSIKGYKGGYCAKGGFVCKCY [Q14R + K20R],2
5,GFGCNGPWDEGDMQCHNHCKSIKGYKGGYCARGGFVCKCY [D11G + K32R],3

# Tested on: Staphylococcus aureus, ATCC 29213
# Test: MIC, NCCLS/CLSI guidelines (Example 5), strain A
# Assay type: cell-based
# Conditions: relative to wildtype Plectasin; average of two independent experiments
# Procedure: as §1, §2, §3, §4
row,Sequence,"Relative MIC, strain A"
1,GFGCKGPWDEDDMQCHNHCKSIKGYRGGYCAKGGFVCKCY [N5K + K26R],1 (80-100% of Plectasin wildtype MIC)
2,GFGCNGPWDEDDMRCHNHCKSIKGYRGGYCAKGGFVCRCY [Q14R + K26R + K38R],3 (<50% of Plectasin wildtype MIC)
3,GFGCNGPWDEDDMRCHNHCKSIRGYRGGYCAKGGFVCKCY [Q14R + K23R + K26R],3 (<50% of Plectasin wildtype MIC)
4,GFGCNGPWDEDDMRCHNHCRSIKGYKGGYCAKGGFVCKCY [Q14R + K20R],3 (<50% of Plectasin wildtype MIC)
5,GFGCNGPWDEGDMQCHNHCKSIKGYKGGYCARGGFVCKCY [D11G + K32R],1 (80-100% of Plectasin wildtype MIC)

# Tested on: panel of 6 different strains of Staphylococcus aureus
# Test: Average MIC, NCCLS/CLSI guidelines using caMHB (Example 6)
# Assay type: cell-based
# Conditions: average over 6 S. aureus strains, duplicate; MIC above 32 counted as 64; read after 18-24 hours at 37° C.
# In short: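 MICs were determined by broth dilution per NCCLS/CLSI in caMHB against six S. aureus strains (four MSSA, two MRSA), with peptides at 0.03–32 microgram/mL, read after 18-24 h at 37° C. Each was tested in duplicate and the two results averaged; MICs above 32 micrograms/mL were counted as 64.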
row,Sequence,Average MIC
1,GFGCKGPWDEDDMQCHNHCKSIKGYRGGYCAKGGFVCKCY [N5K + K26R],9 micrograms/mL
2,GFGCNGPWDEDDMRCHNHCKSIKGYRGGYCAKGGFVCRCY [Q14R + K26R + K38R],2 micrograms/mL
3,GFGCNGPWDEDDMRCHNHCKSIRGYRGGYCAKGGFVCKCY [Q14R + K23R + K26R],2 micrograms/mL
4,GFGCNGPWDEDDMRCHNHCRSIKGYKGGYCAKGGFVCKCY [Q14R + K20R],3 micrograms/mL
5,GFGCNGPWDEGDMQCHNHCKSIKGYKGGYCARGGFVCKCY [D11G + K32R],5 micrograms/mL

# Tested on: Staphylococcus aureus, ATCC 29737
# Test: MIC, NCCLS/CLSI guidelines (Example 5), strain C
# Assay type: cell-based
# Conditions: relative to wildtype Plectasin; average of two independent experiments
# Procedure: as §1, §2, §3, §4
row,Sequence,"Relative MIC, strain C"
1,GFGCKGPWDEDDMQCHNHCKSIKGYRGGYCAKGGFVCKCY [N5K + K26R],3 (<50% of Plectasin wildtype MIC)
2,GFGCNGPWDEDDMRCHNHCKSIKGYRGGYCAKGGFVCRCY [Q14R + K26R + K38R],3 (<50% of Plectasin wildtype MIC)
3,GFGCNGPWDEDDMRCHNHCKSIRGYRGGYCAKGGFVCKCY [Q14R + K23R + K26R],3 (<50% of Plectasin wildtype MIC)
4,GFGCNGPWDEDDMRCHNHCRSIKGYKGGYCAKGGFVCKCY [Q14R + K20R],3 (<50% of Plectasin wildtype MIC)
5,GFGCNGPWDEGDMQCHNHCKSIKGYKGGYCARGGFVCKCY [D11G + K32R],3 (<50% of Plectasin wildtype MIC)

# Tested on: Staphylococcus aureus, MRSA ST80 (2003)
# Test: MIC, NCCLS/CLSI guidelines (Example 5), strain E
# Assay type: cell-based
# Conditions: relative to wildtype Plectasin; average of two independent experiments
# Procedure: as §1, §2, §3, §4
row,Sequence,"Relative MIC, strain E"
1,GFGCKGPWDEDDMQCHNHCKSIKGYRGGYCAKGGFVCKCY [N5K + K26R],2 (50-80% of Plectasin wildtype MIC)
2,GFGCNGPWDEDDMRCHNHCKSIKGYRGGYCAKGGFVCRCY [Q14R + K26R + K38R],3 (<50% of Plectasin wildtype MIC)
3,GFGCNGPWDEDDMRCHNHCKSIRGYRGGYCAKGGFVCKCY [Q14R + K23R + K26R],3 (<50% of Plectasin wildtype MIC)
4,GFGCNGPWDEDDMRCHNHCRSIKGYKGGYCAKGGFVCKCY [Q14R + K20R],3 (<50% of Plectasin wildtype MIC)
5,GFGCNGPWDEGDMQCHNHCKSIKGYKGGYCARGGFVCKCY [D11G + K32R],3 (<50% of Plectasin wildtype MIC)

# Tested on: Staphylococcus aureus, MRSA ST5 (2001)
# Test: MIC, NCCLS/CLSI guidelines (Example 5), strain D
# Assay type: cell-based
# Conditions: relative to wildtype Plectasin; average of two independent experiments
# Procedure: as §1, §2, §3, §4
row,Sequence,"Relative MIC, strain D"
1,GFGCKGPWDEDDMQCHNHCKSIKGYRGGYCAKGGFVCKCY [N5K + K26R],2 (50-80% of Plectasin wildtype MIC)
2,GFGCNGPWDEDDMRCHNHCKSIKGYRGGYCAKGGFVCRCY [Q14R + K26R + K38R],3 (<50% of Plectasin wildtype MIC)
3,GFGCNGPWDEDDMRCHNHCKSIRGYRGGYCAKGGFVCKCY [Q14R + K23R + K26R],3 (<50% of Plectasin wildtype MIC)
4,GFGCNGPWDEDDMRCHNHCRSIKGYKGGYCAKGGFVCKCY [Q14R + K20R],3 (<50% of Plectasin wildtype MIC)
5,GFGCNGPWDEGDMQCHNHCKSIKGYKGGYCARGGFVCKCY [D11G + K32R],2 (50-80% of Plectasin wildtype MIC)
